Results on 28 compounds are retold here after ChEMBL document CHEMBL1140582, “Development of CXCR3 antagonists. Part 2: Identification of 2-amino(4-piperidinyl)azoles as potent CXCR3 antagonists” (Bioorg Med Chem Lett, 2007).

The structures appear in SMILES notation. Converted amounts (≈) assume the structure as drawn.

Data set [1] addresses T1, C-X-C chemokine receptor type 3 (Homo sapiens, UniProt P49682).
T1 sequence (P49682 whole entry): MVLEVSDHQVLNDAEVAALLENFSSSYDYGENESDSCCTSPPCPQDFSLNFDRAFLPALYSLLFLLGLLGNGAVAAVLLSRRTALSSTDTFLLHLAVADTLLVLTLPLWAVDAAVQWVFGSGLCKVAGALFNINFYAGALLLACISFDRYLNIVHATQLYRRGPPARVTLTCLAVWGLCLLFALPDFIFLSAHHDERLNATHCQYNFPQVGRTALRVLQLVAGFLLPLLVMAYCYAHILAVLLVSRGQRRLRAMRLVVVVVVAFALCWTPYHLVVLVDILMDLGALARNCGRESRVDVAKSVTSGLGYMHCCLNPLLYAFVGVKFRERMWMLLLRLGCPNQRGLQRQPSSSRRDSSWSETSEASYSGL
Put plainly: Binding affinity to human CXCR3 receptor expressed in CHO membrane by ITAC-stimulated GTP gammaS assay. It counts as cell membranes.

The nature of data set [2]: Partition coefficient, log D at pH 7.4. The following applies: octanol/water.
For a further data set, the target named is CYP2D6 (Homo sapiens, UniProt P10635). Briefly: Inhibition of CYP2D6 at 50 uM. It counts as ADME.
CYP2D6, sequence (P10635 whole entry): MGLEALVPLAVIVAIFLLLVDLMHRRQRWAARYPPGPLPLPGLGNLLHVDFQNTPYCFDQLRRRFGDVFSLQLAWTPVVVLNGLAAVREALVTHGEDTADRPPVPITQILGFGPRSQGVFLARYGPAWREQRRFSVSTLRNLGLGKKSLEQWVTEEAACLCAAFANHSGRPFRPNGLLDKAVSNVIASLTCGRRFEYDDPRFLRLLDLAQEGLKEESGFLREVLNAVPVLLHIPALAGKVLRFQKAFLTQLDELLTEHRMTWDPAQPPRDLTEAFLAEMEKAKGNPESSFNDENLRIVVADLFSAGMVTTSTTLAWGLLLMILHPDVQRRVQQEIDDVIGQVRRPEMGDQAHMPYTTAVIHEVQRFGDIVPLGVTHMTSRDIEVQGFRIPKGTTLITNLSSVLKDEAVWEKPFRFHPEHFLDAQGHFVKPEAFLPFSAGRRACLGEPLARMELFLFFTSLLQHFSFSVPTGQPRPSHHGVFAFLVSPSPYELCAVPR
In data set [3] the target is T2, C-X-C chemokine receptor type 3 (Homo sapiens) (UniProt P49682).
T2 sequence (whole entry): T1 sequence (P49682 whole entry)
Briefly: Inhibition of human CXCR3 expressed in CHO membrane at 10 uM by ITAC-stimulated GTP gammaS assay. The format is cell membranes.

Another data set concerns the target Cytochrome P450 2D6 (Homo sapiens, UniProt P10635). Briefly: Inhibition of CYP2D6. The format is ADME.
A short description of data set [4]: Intrinsic clearance in mouse microsomes at 0.5 uM. It counts as ADME, Microsome.
The nature of data set [5]: Cmax in mouse. The following applies: in vivo. It counts as ADME, organism-based.
The nature of data set [6]: AUC in mouse. The format is ADME, organism-based. The following applies: plasma.
Data set [7] is described as follows: Half life in mouse at 10 mg/kg, po. The following applies: in vivo. It counts as ADME, organism-based. Set-up: dose 10 mg/kg, route oral.
The nature of data set [8]: Clearance in mouse plasma at 10 mg/kg, po. The format is ADME, organism-based. Set-up: dose 10 mg/kg, route oral.
A short description of data set [9]: Solubility of the compound. It counts as physicochemical.
For a further data set, the species on record is Homo sapiens. Put plainly: Protein binding in human plasma. The following applies: read-out: PPB (converted).

Cytochrome P450 2D6, sequence (P10635 whole entry): as above

Compound `CC1(C)[C@H]2CC=C(CN3CCC(Nc4nc(-c5ccccc5)cs4)CC3)[C@@H]1C2` registered an inhibition constant Ki in [1] of 880 nM. For the same compound, in data set [2], the logD turned out to be 4.7. Moreover, the inhibition at 50 µM against CYP2D6 was under 20%.

Turning to `CC1(C)[C@H]2CC=C(CN3CCC(N(Cc4ccccc4)C(=O)Nc4cccc(C(F)(F)F)c4)CC3)[C@@H]1C2`, the inhibition in data set [3] is under 20%.

Compound `CC1(C)[C@H]2CC=C(CN3CCC(Nc4nc5ccccc5s4)CC3)[C@@H]1C2` displayed an Activity at Cytochrome P450 2D6 of 13 µM. Moreover, the clearance in data set [4] was determined as 1 µL/min/mg. For the same compound, the Ki in data set [1] was found to be 350 nM. This compound also had a pH-dependent lipophilicity (logD) in data set [2] of over 5.

Consider `CC1(C)[C@H]2CC=C(CN3CCC(N4CC(=O)N(c5cc(F)cc(C(F)(F)F)c5)C4=O)CC3)[C@@H]1C2`, for which the clearance in data set [4] was found to be 290 µL/min/mg. In [1], the affinity, expressed as Ki, was 100 nM. The log distribution coefficient (logD) in data set [2] worked out at 4.85.

With `CN(c1nc2ccccc2o1)C1CCN(CC2=CC[C@H]3C[C@@H]2C3(C)C)CC1`, the Ki in [1] stood at 720 nM. For the same compound, the pH-dependent lipophilicity (logD) in [2] is 4.6.

As to `CC1(C)[C@H]2CC=C(CN3CCC(N4CCN(c5cc(C(F)(F)F)cc(C(F)(F)F)c5)C4=O)CC3)[C@@H]1C2`, in data set [4], the clearance came out at 7 µL/min/mg. The inhibition constant Ki in [1] was 170 nM. The compound further showed a logD in data set [2] of over 5.5.

Consider `CN(c1nc2ccccc2[nH]1)C1CCN(CC2=CC[C@H]3C[C@@H]2C3(C)C)CC1`, for which the inhibition constant (Ki) in data set [1] is 950 nM. For the same compound, the logD in [2] is 4.2.

In turn, `CN(C(=O)Nc1cccc(C(F)(F)F)c1)C1CCN(CC2=CC[C@H]3C[C@@H]2C3(C)C)CC1` had an inhibition constant (Ki) in data set [1] of 180 nM.

In turn, `CC1(C)[C@H]2CC=C(CN3CCC(N4CC(=O)N(c5ccc(Cl)c(C(F)(F)F)c5)C4=O)CC3)[C@@H]1C2` had a clearance in data set [4] of 280 µL/min/mg. Moreover, affinity in data set [1] was put at a Ki of 120 nM. This compound also had a logD in data set [2] of 5.3.

Compound `CC1(C)[C@H]2CC=C(CN3CCC(N4CC(=O)N(c5cccc(C(F)(F)F)c5)C4=O)CC3)[C@@H]1C2` had a clearance in [4] of 318 µL/min/mg. The same compound returned an inhibition constant (Ki) in [1] of 220 nM. In data set [2], the log distribution coefficient (logD) came to 4.6.

The compound `CN(c1nc2ccccc2s1)C1CCN(CC2=CC[C@H]3C[C@@H]2C3(C)C)CC1` came in with an Activity on Cytochrome P450 2D6 of 2.2 µM. The clearance in data set [4] came to 78 µL/min/mg. In addition, in [1], the inhibitory constant (Ki) was found to be 140 nM. In addition, in data set [2], the logD was over 5.

`CC1(C)[C@H]2CC=C(CN3CCC(Nc4nc5ccc(Br)cc5s4)CC3)[C@@H]1C2` registered an Activity on Cytochrome P450 2D6 of 0.7 µM. Besides, in data set [4], the clearance is 150 µL/min/mg. In data set [1], the inhibitory constant (Ki) was found to be 130 nM. This compound returned a log distribution coefficient (logD) in data set [2] of over 5.

Consider `CN(c1nc2c(Cl)cccc2s1)C1CCN(CC2=CC[C@H]3C[C@@H]2C3(C)C)CC1`, for which the affinity in data set [1], expressed as Ki, was 460 nM. Moreover, the logD in data set [2] was found to be 5.

Take `CSc1cccc(N2C(=O)CN(C3CCN(CC4=CC[C@H]5C[C@@H]4C5(C)C)CC3)C2=O)c1`: the clearance in [4] worked out at 230 µL/min/mg. The Ki in data set [1] turned out to be 750 nM. In data set [2], the logD is 5.

In turn, `CC1(C)[C@H]2CC=C(CN3CCC(Nc4nc(-c5cc(C(F)(F)F)cc(C(F)(F)F)c5)ns4)CC3)[C@@H]1C2` came in with an Activity on Cytochrome P450 2D6 of 15 µM. The same compound displayed a clearance in [4] of 16 µL/min/mg. The compound also came in with a Ki in data set [1] of 270 nM. Besides, the logD in [2] worked out at 5. Moreover, the highest level in data set [5] (Cmax) was 2010 ng/mL. The same compound showed an area under the curve (AUC) in data set [6] of 10800 ng·h/mL. Moreover, the half-life in [7] is 5.4 h. The apparent clearance (CL/F) in [8] came out at 2.8 mL/min/kg. In addition, the concentration in solution in data set [9] (solubility) was 2.7 µg/mL (≈ 5.09 µM). Further, the fraction unbound in the data set filed under Homo sapiens was 0.003.

In turn, `CCN(C(=O)Nc1cccc(C(F)(F)F)c1)C1CCN(CC2=CC[C@H]3C[C@@H]2C3(C)C)CC1` gave a Ki in [1] of 3600 nM.

Consider `CC1(C)[C@H]2CC=C(CN3CCC(Nc4nc(-c5ccc(Cl)c(Cl)c5)cs4)CC3)[C@@H]1C2`, for which the Ki in data set [1] worked out at 460 nM. Besides, the log distribution coefficient (logD) in data set [2] is over 5. On CYP2D6, this compound gave an inhibition at 50 µM of under 20%.

At Cytochrome P450 2D6, `CN(c1nc2cc(Cl)ccc2s1)C1CCN(CC2=CC[C@H]3C[C@@H]2C3(C)C)CC1` registered an Activity of 3.5 µM. The same compound registered a clearance in data set [4] of 41 µL/min/mg. In data set [1], the Ki was found to be 290 nM. This compound also showed a log distribution coefficient (logD) in data set [2] of 5.

Turning to `CC1(C)[C@H]2CC=C(CN3CCC(Nc4nc5c(Br)cccc5s4)CC3)[C@@H]1C2`, the Activity at Cytochrome P450 2D6 was 1.2 µM. For the same compound, the clearance in data set [4] was found to be 140 µL/min/mg. The Ki in data set [1] is 150 nM. The compound further yielded a logD in data set [2] of over 5.

In turn, `CC1(C)[C@H]2CC=C(CN3CCC(N4CCN(c5cc(F)cc(C(F)(F)F)c5)C4=O)CC3)[C@@H]1C2` registered a clearance in data set [4] of 88 µL/min/mg. In addition, in [1], the Ki was determined as 200 nM. Also, in [2], the pH-dependent lipophilicity (logD) was 4.6.

Turning to `CC1(C)[C@H]2CC=C(CN3CCC(N4CC(=O)N(c5cc(C(F)(F)F)cc(C(F)(F)F)c5)C4=O)CC3)[C@@H]1C2`, the clearance in [4] worked out at 220 µL/min/mg. In data set [1], this compound came in with a Ki of 26 nM. The compound further gave a pH-dependent lipophilicity (logD) in [2] of over 5.5.

As to `CC(=O)c1cccc(N2C(=O)CN(C3CCN(CC4=CC[C@H]5C[C@@H]4C5(C)C)CC3)C2=O)c1`, the inhibition in [3] is under 20%. Also, in [2], the logD is 3.4.

On to `CN(c1nc2ccc(Cl)cc2s1)C1CCN(CC2=CC[C@H]3C[C@@H]2C3(C)C)CC1`, for which the Activity on Cytochrome P450 2D6 was determined as 7.3 µM. This compound also came in with a clearance in [4] of 48 µL/min/mg. This compound also yielded a Ki in data set [1] of 170 nM. In [2], this compound yielded a pH-dependent lipophilicity (logD) of 5.

With `CC1(C)[C@H]2CC=C(CN3CCC(Nc4nc(-c5cc(C(F)(F)F)cc(C(F)(F)F)c5)cs4)CC3)[C@@H]1C2`, the clearance in [4] is 34 µL/min/mg. In addition, affinity in data set [1] was put at a Ki of 260 nM. In data set [2], this compound gave a logD of over 5. Moreover, the inhibition at 50 µM against CYP2D6 was under 20%.

As for `CN(c1nc2cccc(Cl)c2s1)C1CCN(CC2=CC[C@H]3C[C@@H]2C3(C)C)CC1`, the Activity at Cytochrome P450 2D6 worked out at 4.1 µM. Further, the affinity in [1] corresponds to a Ki of 620 nM. Also, the logD in data set [2] is over 5.

Compound `CCc1cccc(N2C(=O)CN(C3CCN(CC4=CC[C@H]5C[C@@H]4C5(C)C)CC3)C2=O)c1` yielded a clearance in data set [4] of 190 µL/min/mg. The Ki in [1] was determined as 380 nM. The compound also had a logD in data set [2] of 4.7.

In turn, `CC1(C)[C@H]2CC=C(CN3CCC(Nc4nc5ccccc5o4)CC3)[C@@H]1C2` had an inhibition constant Ki in data set [1] of 680 nM.

In turn, `CCc1cccc(N(C)C(=O)NC2CCN(CC3=CC[C@H]4C[C@@H]3C4(C)C)CC2)c1` returned a Ki in data set [1] of 3500 nM.
